# Reference: patent US20210094955A1, “SALT AND CRYSTAL OF TRIAZOLOPYRAZINE DERIVATIVE” (priority 2017, published 2021)
# Key:
# [1] = Solubility test, Test Method 1 (sample approx. 150 μg/mL, shaken 10 minutes at room temperature, filtrate quantified by HPLC); type: physicochemical; settings: approx. 150 μg/mL added, in terms of free form
# Protocol: Test Method of Free Form, Hydrochloride, Hydrobromide, Sulfate, Methanesulfonate, and Benzenesulfonate […] In order to uniformly disperse the sample in the dissolving solution, the sample was irradiated with ultrasonic waves in a water tank for a short time, and then vigorously shaken at room temperature for 10 minutes using a shaker SA-31 manufactured by Yamato Scientific Co., Ltd. The solution after shaken was filtered with a filter, and a concentrations of the compound in filtrate was quantified by HPLC. The following was used as the dissolving solution. […] JP2 (Japanese Pharmacopoeia 2nd Fluid for disintegration test): manufactured by Nacalai Tesque Inc. JP2+TC: Add sodium taurocholate to Japanese Pharmacopoeia 2nd Fluid for disintegration test to obtain a concentration of 15 mM. FaSSIF (artificial intestinal fluid (fasted state)): […] FeSSIF (artificial intestinal fluid (fed state)): […] Measurement conditions of free form, hydrochloride, hydrobromide, sulfate, methanesulfonate, and benzenesulfonate) Equipment: LC-1260 manufactured by Agilent Technologies Mobile phase: A: 0.01 M aqueous solution of ammonium acetate, B: 0.01 M methanol solution of ammonium acetate Flow rate: 0.3 mL/min Column: Develosil Combi-RP-5 5 μm (2.0 mm×50 mm) Column temperature: 40° C. […] Ex indicates Example Number to be described later.
# [2] = Solubility test, Test Method 2 (sample approx. 300 μg/mL, shaken 10 minutes at room temperature, filtrate quantified by HPLC); type: physicochemical; settings: approx. 300 μg/mL added, in terms of free form
# Protocol: JP1 (Japanese Pharmacopoeia 1st Fluid for disintegration test): manufactured by Nacalai Tesque Inc.
# JP2 (Japanese Pharmacopoeia 2nd Fluid for disintegration test): manufactured by Nacalai Tesque Inc.
# JP2+TC: Add sodium taurocholate to Japanese Pharmacopoeia 2nd Fluid for disintegration test to obtain a concentration of 15 mM.
# FaSSIF (artificial intestinal fluid (fasted state)): To 1 L of water, 3 mmol of sodium taurocholate, 0.75 mmol of lecithin, 3.9 g of potassium dihydrogen phosphate, and 7.7 g of potassium chloride are added, and a pH thereof is adjusted to approximately 6.5 using sodium hydroxide.
# FeSSIF (artificial intestinal fluid (fed state)): To 1 L of water, 15 mmol of sodium taurocholate, 3.75 mmol of lecithin, 8.65 g of acetic acid, and 15.2 g of potassium chloride are added, and a pH is adjusted to approximately 5.0 using sodium hydroxide.
# Test Method 2: Test Method for p-Toluenesulfonate and 1-Hydroxy-2-Naphthoate
# Into a 10 mL centrifuge tube, 1 to 1.3 mg of a sample was weighed, and each dissolving solution (see below) was added thereto to be approximately 300 μg/mL. In order to uniformly disperse the sample in the dissolving solution, the sample was irradiated with ultrasonic waves in a water tank for a short time, and then vigorously shaken at room temperature for 10 minutes using a shaker SA-31 manufactured by Yamato Scientific Co., Ltd. The solution after shaken was filtered with a filter, and a concentration of the compound in filtrate was quantified by HPLC. The same dissolving solution as in Test Method 1 was used.
# (Measurement condition 2 using HPLC: Measurement conditions of p-toluenesulfonate and 1-hydroxy-2-naphthoate)
# Equipment: LC-1260 manufactured by Agilent Technologies
# Mobile phase: A: 0.1% aqueous perchloric acid, B: methanol
# Column: YMC-Triart C18 S-3 μm (2.0 mm×50 mm)
# Column temperature: 40° C.
# Detection wavelength: 254 nm
# Ex indicates Example Number to be described later.
# [3] = pH 1.2, simulated gastric fluid, thermodynamic from solid, JP1 (Japanese Pharmacopoeia 1st Fluid for disintegration test), 10 minutes shaking, read-out: Solubility JP1
# [4] = pH 5, thermodynamic from solid, FeSSIF (artificial intestinal fluid, fed state), pH approx. 5.0, 10 minutes shaking, read-out: Solubility FeSSIF
# [5] = pH 6.5, thermodynamic from solid, FaSSIF (artificial intestinal fluid, fasted state), pH approx. 6.5, 10 minutes shaking, read-out: Solubility FaSSIF
# [6] = pH 6.8, aqueous buffer, thermodynamic from solid, JP2 (Japanese Pharmacopoeia 2nd Fluid for disintegration test), 10 minutes shaking, read-out: Solubility JP2
# [7] = pH 6.8, fassgf or other biorelevant, thermodynamic from solid, JP2 with 15 mM sodium taurocholate, 10 minutes shaking, read-out: Solubility JP2 + TC
SMILES,"solubility at 10 min [1, 3]","solubility at 10 min [1, 4]","solubility at 10 min [1, 5]","solubility at 10 min [1, 6]","solubility at 10 min [1, 7]",also measured
"Cc1nsc(-c2nnc3n2CCN(C(=O)c2ccc(F)cc2)[C@@H]3C)n1.O=S(=O)(O)c1ccccc1 [Example 7, (4-fluorophenyl)[(8R)-8-methyl-3-(3-methyl-1,2,4-thiadiazol-5-yl)-5,6-dihydro[1,2,4]triazolo[4,3-a]pyrazin-7(8H)-yl]methanone benzenesulfonate]",> 100 µg/mL,> 100 µg/mL,> 100 µg/mL,> 100 µg/mL,> 100 µg/mL,
"Cc1ccc(S(=O)(=O)O)cc1.Cc1nsc(-c2nnc3n2CCN(C(=O)c2ccc(F)cc2)[C@@H]3C)n1 [Example 5, (4-fluorophenyl)[(8R)-8-methyl-3-(3-methyl-1,2,4-thiadiazol-5-yl)-5,6-dihydro[1,2,4]triazolo[4,3-a]pyrazin-7(8H)-yl]methanone p-toluenesulfonate]",,,,,,"solubility at 10 min [2, 3]: > 100 µg/mL; solubility at 10 min [2, 4]: > 100 µg/mL; solubility at 10 min [2, 5]: > 100 µg/mL; solubility at 10 min ([2]; pH 6.8, fassgf or other biorelevant, thermodynamic from solid, JP2 (Japanese Pharmacopoeia 2nd Fluid for disintegration test), 10 minutes shaking, read-out: Solubility JP2): > 100 µg/mL; solubility at 10 min [2, 7]: > 100 µg/mL"
"Cc1nsc(-c2nnc3n2CCN(C(=O)c2ccc(F)cc2)[C@@H]3C)n1.O=C(O)c1ccc2ccccc2c1O [Example 8, (4-fluorophenyl)[(8R)-8-methyl-3-(3-methyl-1,2,4-thiadiazol-5-yl)-5,6-dihydro[1,2,4]triazolo[4,3-a]pyrazin-7(8H)-yl]methanone 1-hydroxy-2-naphthoate]",,,,,,"Solubility FaSSIF ([2]; FaSSIF (artificial intestinal fluid, fasted state), pH approx. 6.5, 10 minutes shaking): >100 µg/mL; Solubility FeSSIF ([2]; FeSSIF (artificial intestinal fluid, fed state), pH approx. 5.0, 10 minutes shaking): >100 µg/mL; Solubility JP1 ([2]; JP1 (Japanese Pharmacopoeia 1st Fluid for disintegration test), 10 minutes shaking): 58.9 µg/mL; Solubility JP2 ([2]; JP2 (Japanese Pharmacopoeia 2nd Fluid for disintegration test), 10 minutes shaking): >100 µg/mL; Solubility JP2 + TC ([2]; JP2 with 15 mM sodium taurocholate, 10 minutes shaking): >100 µg/mL"
"Cc1nsc(-c2nnc3n2CCN(C(=O)c2ccc(F)cc2)[C@@H]3C)n1 [Compound A, (4-fluorophenyl)[(8R)-8-methyl-3-(3-methyl-1,2,4-thiadiazol-5-yl)-5,6-dihydro[1,2,4]triazolo[4,3-a]pyrazin-7(8H)-yl]methanone, reference compound]",66.6 µg/mL,31.9 µg/mL,36.5 µg/mL,65.4 µg/mL,82.9 µg/mL,
"Cc1nsc(-c2nnc3n2CCN(C(=O)c2ccc(F)cc2)[C@@H]3C)n1.O=S(=O)(O)O [Example 3, (4-fluorophenyl)[(8R)-8-methyl-3-(3-methyl-1,2,4-thiadiazol-5-yl)-5,6-dihydro[1,2,4]triazolo[4,3-a]pyrazin-7(8H)-yl]methanone sulfate]",> 100 µg/mL,> 100 µg/mL,> 100 µg/mL,> 100 µg/mL,> 100 µg/mL,
"Br.Cc1nsc(-c2nnc3n2CCN(C(=O)c2ccc(F)cc2)[C@@H]3C)n1 [Example 2, (4-fluorophenyl)[(8R)-8-methyl-3-(3-methyl-1,2,4-thiadiazol-5-yl)-5,6-dihydro[1,2,4]triazolo[4,3-a]pyrazin-7(8H)-yl]methanone hydrobromide]",> 100 µg/mL,> 100 µg/mL,> 100 µg/mL,> 100 µg/mL,> 100 µg/mL,
"CS(=O)(=O)O.Cc1nsc(-c2nnc3n2CCN(C(=O)c2ccc(F)cc2)[C@@H]3C)n1 [Example 6, (4-fluorophenyl)[(8R)-8-methyl-3-(3-methyl-1,2,4-thiadiazol-5-yl)-5,6-dihydro[1,2,4]triazolo[4,3-a]pyrazin-7(8H)-yl]methanone methanesulfonate]",> 100 µg/mL,> 100 µg/mL,> 100 µg/mL,> 100 µg/mL,> 100 µg/mL,
"Cc1nsc(-c2nnc3n2CCN(C(=O)c2ccc(F)cc2)[C@@H]3C)n1.Cl [Example 1, (4-fluorophenyl)[(8R)-8-methyl-3-(3-methyl-1,2,4-thiadiazol-5-yl)-5,6-dihydro[1,2,4]triazolo[4,3-a]pyrazin-7(8H)-yl]methanone hydrochloride]",> 100 µg/mL,> 100 µg/mL,> 100 µg/mL,> 100 µg/mL,> 100 µg/mL,
